Experimental data taken from patent US20240117431A1, “STEM-CELL BASED BIOMARKER DISCOVERY” (THE REGENTS OF THE UNIVERSITY OF CALIFORNIA, priority 2020, published 2024).

How the values were obtained:
[1] = tested on: (−)TgUPRT HEK cells; assay: Background incorporation of uracil analogs into RNA, streptavidin-HRP dot blot; type: cell-based; conditions: for incorporation into RNA at higher concentration: 1 mM, mimics in vivo applications, FIG. 4
Method: (§1) Transfection, labeling of cellular RNA and RNA isolation: After 48h seeding, HEK293 cells were transfected with 2.5 μg of TgUPRT WT or mutant plasmids (pKN-CMV-TgUPRT-WT or -Mutt to Mut17) per 5 cm plate using JetPrime Transfection reagent (Polyplus Transfection, France). At 40h post-transfection, cells were incubated with a final concentration of 200 μM at <1% DMSO from 400 mM stock of uracil analogs (5EU, 5VU, 5AU) or 200 mM SAMU stock for 5 h. For time course study, HEK cells were treated with 200 μM uracil analogs for 0 h, 0.5, 1, 3, 5, 12 and 24 hours. For titrating uracil analog concentration experiments, HEK cells were treated with 0 (DMSO), 50, 100, 200, 500 μM or 1 mM uracil analog for 5h. Treated HEK cells were subjected to total RNA extraction using 1 mL Trizol Reagent (Invitrogen) following the manufacturer instructions.
(§2) Biotinylation via CuAAC and IEDDA: Cu-mediated Azide-Alkyne cycloaddition (CuAAC) click reactions were performed in 50 μL reaction at 22° C. on a shaker for 30 min with click reaction cocktail containing 15 μg of total RNA, 1 mM biotin alkyne or biotin azide, fresh 4.6 mM THPTA to a final concentration of 1 mM, and fresh 10.6 mM sodium ascorbate (NaAsc) at final concentration of 1.77 mM, and 12 mM CuSO4 at final concentration of 200 μM in biotinylation reaction buffer (10 mM TrisHCI, 1 mM EDTA, pH7.4). The biotinylated RNA was purified using RNA clean & Concentrator-5 kit (Zymo Research, Cat #R1013) according to the manufacturer instructions and eluted in 21 μL of nuclease free water.
(§3) Inverse electron demand [4+2] Diels-Alder cycloaddition (IEDDA) click reactions were performed in 50 μL at 37° C. or 22° C. (RT) for 3h on mixer at 500 rpm containing 10-15 μg of total RNA, 1 mM final concentration of biotin-benzyl tetrazine (Sigma Aldrich, Cat #793329-5MG) in nuclease free water. Clicked total RNA was purified using RNA clean & Concentrator-5 kit (Zymo Research, Cat #R1013) according to the manufacturer instructions, and RNA was eluted in 21 μL of nuclease free water.
HRP-streptavidin dot blot analysis: All gel reagents were from Bio-Rad. For dot blot analysis, 2 μg of clicked total RNA was applied onto Hybond-N+ membrane (GE Healthcare) as individual dots and UV-crosslinked (254 nm) to a membrane (Stratalinker UV crosslinker). Membranes were blocked in blocking buffer (0.12 M NaCl, 0.016 M Na2HPO4, 0.008 M NaH2PO4, 0.17 M SDS) and followed by incubation with high sensitivity streptavidin-HRP (Fisher Scientific, Cat #: P121130) at 1:5000 dilution in blocking buffer for 5 minutes. The membrane was washed twice in a Wash A buffer (1:10 dilution of blocking buffer) and twice in Wash B buffer (Tris-saline buffer). […]

[2] = biological target: T1, wild-type (WT) TgUPRT in HEK cells (Toxoplasma gondii, UniProt Q26998); assay: In-cell RNA incorporation by wild-type TgUPRT, streptavidin dot blot; type: cell-based
T1 construct: 6xHis; expressed in transfected cells; host or cells: HEK293 (HEK293T)
T1 sequence (Q26998 whole entry): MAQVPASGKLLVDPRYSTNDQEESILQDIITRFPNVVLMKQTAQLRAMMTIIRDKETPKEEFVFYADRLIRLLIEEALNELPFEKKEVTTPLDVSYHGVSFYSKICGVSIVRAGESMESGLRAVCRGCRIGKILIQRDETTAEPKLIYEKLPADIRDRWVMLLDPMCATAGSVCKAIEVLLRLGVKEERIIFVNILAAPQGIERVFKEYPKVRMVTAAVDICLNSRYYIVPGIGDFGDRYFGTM
Method: as §1, §2, §3
(§4) HRP-streptavidin dot blot analysis: All gel reagents were from Bio-Rad. […]

[3] = tested on: mutant TgUPRT (triple mutants 3×MT, M166A/A168G/Y228A and M166A/A168G/Y228G) in HEK293 cells; assay: In-cell RNA incorporation by mutant TgUPRT, streptavidin dot blot; type: cell-based, Toxoplasma gondii
Method: as §1, §2, §3, §4

## C#Cc1c[nH]c(=O)[nH]c1=O [compound 1, 5-ethynylpyrimidine-2,4(1H,3H)-dione]
[1]
  incorporation into RNA at higher concentration: very robust incorporation
[1]; (−)TgUPRT HEK cells, FIGS. 3A, 3B
  background incorporation into RNA: low level of background incorporation
[2]; wild-type TgUPRT active site
  TgUPRT-dependent incorporation into cellular RNA: capable of such transformations

## C=Cc1c[nH]c(=O)[nH]c1=O [compound 2, 5-Vinylpyrimidine-2,4(1H,3H)-dione]
[1]
  incorporation into RNA at higher concentration: not observed
[3]; 200 μM time course to 24 h, in comparison to wild-type
  analog incorporation over time with mutant TgUPRT enzymes: much more robust over time
[3]; 200 μM time course, dot blot, FIG. 9B
  time at which analog incorporation was observed: 0.5 hr
[3]; 200 μM, 5 hours, HEK293T
  incorporation into RNA by triple mutants (3×MT): robust incorporation
[2]; 200 μM, long periods of incubation, FIG. 9B
  analog incorporation over time with wild-type TgUPRT: did not result in any observed incorporation
